Test results from patent US20020197219A1, “Composition containing a peptide and a pigment and the use thereof in darkening the skin” (priority 2001, published 2002).

How the values were obtained:
[1] = test system: keratinocyte-melanocyte co-cultures (Human HaCaT keratinocytes, human primary melanocytes); test: Induced pigmentation in keratinocyte-melanocyte co-cultures, DOPA staining and computerized image analysis; format: cell-based; details: three daily treatments; for Mean area: DOPA stain, relative pigmented area; for % increase: versus control
Description: The peptide Peptide 1 and various pigments were tested, alone or in combination, with keratinocyte-melanocyte cultures for their effect on cell pigmentation, using DOPA staining and computerized image analysis. The pigments that were tested were copper chloride from Sigma (St. Louis, Mo.) and the water-soluble melanin derivative Melasyn-100™ from San-mar laboratories, Inc. (Elmsford, N.Y.). The pigments were tested at concentrations ranging from 0.0001% (W/V) to 0.1% (W/V) and peptides were tested at 50 μM.
The assay was conducted in the following manner. Human HaCaT keratinocytes (Boukamp P., et al., J Cell Biol 106, 3, 761-771 (1988)) were maintained in Dulbecco's Modified Eagle's Medium (DMEM) containing 10% fetal bovine serum (FBS), 4.5 mg/ml glucose, 2 mM L-glutamine, 50 U/ml penicillin and 50 μg/ml streptomycin (Life Technologies, Gaithersburg, Md.). Cells were maintained at <80% confluency in 5% CO2 (v/v) and were used in experimental procedures up to culture passage 15. Human primary melanocytes (Clonetics, San Diego, Calif. or Cascade Biologics, Portland, Oreg.) were maintained according to manufacturer's instructions. To establish keratinocyte-melanocyte co-cultures, 6×10^4 melanocytes were plated in each well of a 24 well plate and maintained according to manufacturer's instructions.
Melanocytes were rinsed three times with melanocyte growth media without PMA and keratinocytes (6×10^4) were plated to establish the co-cultures in this media. Co-cultures were treated for three days with test peptides and pigments, and assayed for cell viability and pigment level on the forth day. Cell viability was assayed using alamarBlue™ (Acumed International, West Lake, Ohio) following manufacturer's instructions. No change in viability was observed following three daily treatments with all tested material. All in vitro experiments were performed in triplicates, and were repeated at least three times.
Following three daily treatments, the co-cultures were briefly fixed (10% buffered formalin from Fisher Scientific, 15 minutes), washed three times with Phosphate-buffered saline (PBS, from Life Technologies) and stained with L-3,4-Dihydroxyphenylalanine (DOPA, from Sigma, St. Louis, Mo.) 0.1% in PBS, for 5 hours at 37° C., followed by two PBS washes and formalin (10%, overnight) fixation. DOPA is a substrate for tyrosinase, therefore an increase in staining represents increased tyrosinase activity and pigment production. DOPA-stained monolayers were used for image analysis. All images were obtained and analyzed with Image Pro Plus 3.0 software (Media Cybernetics, Silver Spring, Md.). Parameters measured were surface area of stained material within melanocyte and keratinocytes and the total surface area of the cells in the culture, and the relative pigmented area was calculated. A value of 100% was assigned to untreated controls, and values of treatment groups were normalized to their relevant controls. In all experiments there was no difference between PBS-treated cells and untreated controls. Data are presented with standard deviation (SigmaPlot® 5.0, SPSS Science, Chicago, Ill.).
Forskolin (Sigma, St. Louis, Mo.), a known inducer of pigmentation, served as a positive control and a reference point. Forskolin was administered at 1% (W/V).

[2] = test system: Dark skinned Yucatan microswine; test: Induced pigmentation in vivo, F&M-stained skin sections of topically treated swine; design: key: −1: Slight lightening; 0: No change; 1: Minimal increase in pigment deposition; 2: Increased pigment deposition; 3: Strong increase in pigment deposition, some increase in caps; 4: Strong increase in pigment deposition, strong increase in caps; details: topical, twice a day, five days/week, eight or nine weeks; average of all sites of responsive swine; positive controls 1% (W/V), peptides 250 or 500 μM, pigments 1% or 5% (W/V)
Description: Compositions of the present invention were tested for their ability to induce in vivo pigmentation in skin cells in the following experiment. Dark skinned Yucatan microswine (Charles River, Portland, Me.) were housed in appropriately sized cages in an environmentally controlled room with a 12-hour light-12-hour dark photoperiod and supplied with food and water ad libitum. Animal care was based on the “Guide for the Care and Use of Laboratory Animals”, NIH Publication No. 85-23. Twenty μl of test peptides were applied topically, twice a day, five days/week, for eight or nine weeks, on the dorsum of the swine. Treatments of individual swine were always arranged in a head to tail order on one side, and in a tail to head order on the other side of the animal. Biopsies were taken using standard techniques.
Sections from the skin biopsies were stained with Hematoxylin and Eosin (H&E), or with Fontana-Mason (F&M), using standard procedures (Sheenan DC, Hrapckak BB, eds., Theory and Practice of Histo-technology. p. 223, 277, The C. V. Mosby Co., St. Louis (1980)). F&M staining identifies silver nitrate reducing molecules. In skin, this non-specific stain identifies primarily melanin. At least three sections per biopsy were processed. […]
F&M-stained histological skin sections were evaluated for the change in pigment deposition within the treated site. […]

Compound | Mean area ([1]; 0.001% (W/V)) | % increase ([1]; 0.001% (W/V)) [%] | Mean area ([1]; 0.1% (W/V)) | % increase ([1]; 0.1% (W/V)) [%] | Score (change in pigment deposition) [2] | Mean area ([1]; 50 μM) | % increase ([1]; 50 μM) [%]
[Cl][Cu][Cl] [CuCl2, copper chloride] | 0.173 | 120 | 0.246 | 212 |  |  | 
C=C[C@@]1(C)CC(=O)[C@]2(O)[C@@]3(C)[C@@H](O)CCC(C)(C)[C@@H]3[C@H](O)[C@H](OC(C)=O)[C@@]2(C)O1 [Forskolin] |  |  |  |  | 1 |  | 
H2-Val-Gly-Val-Ala-Pro-Gly-NH2 (H-VGVAPG-NH2) [Peptide 1] |  |  |  |  | 1 | 0.131 | 66.6
